Experimental data reported in paper PMC11300463, “Structure basis for sugar specificity of gustatory receptors in insects” (Cell Discovery, 2024).

Assays:
Assay type in all cases: cell-based
DmoGr43a = target: T1, DmoGr43a (Drosophila mojavensis, UniProt B4KNE2); experiment: electrophysiology, HEK293 cells; conditions: activation; also calcium imaging; cryo-EM structure of complex
T1 construct: gene Dmoj\GI20824; expressed in HEK293 cells for function; purified homotetramer for cryo-EM; printed residues R70, Y312, F313, F315, L386, I418, L419, I420, F422
T1 sequence (B4KNE2 1-427): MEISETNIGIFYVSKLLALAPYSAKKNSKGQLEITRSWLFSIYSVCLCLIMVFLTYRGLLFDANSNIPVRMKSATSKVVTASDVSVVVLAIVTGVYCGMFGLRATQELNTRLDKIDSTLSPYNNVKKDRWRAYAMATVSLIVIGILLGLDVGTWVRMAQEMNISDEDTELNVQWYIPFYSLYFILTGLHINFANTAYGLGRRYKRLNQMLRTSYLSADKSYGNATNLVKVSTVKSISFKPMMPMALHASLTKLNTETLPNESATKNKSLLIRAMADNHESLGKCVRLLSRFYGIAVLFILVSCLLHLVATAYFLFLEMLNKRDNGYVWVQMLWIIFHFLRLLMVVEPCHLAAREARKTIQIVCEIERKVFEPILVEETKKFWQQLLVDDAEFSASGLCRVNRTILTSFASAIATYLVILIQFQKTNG

DmGr64a [1] = target: T2, DmGr64a (Drosophila melanogaster, UniProt P83293); experiment: calcium imaging, HEK293 cells; conditions: activation
T2 construct: gene Gr64a; expressed in HEK293 cells for function; purified homotetramer for cryo-EM; residues Y234, W260, F333, L338, L339, F342, E399, F403, I420, V438, L439, Q441
T2 sequence (P83293 1-456): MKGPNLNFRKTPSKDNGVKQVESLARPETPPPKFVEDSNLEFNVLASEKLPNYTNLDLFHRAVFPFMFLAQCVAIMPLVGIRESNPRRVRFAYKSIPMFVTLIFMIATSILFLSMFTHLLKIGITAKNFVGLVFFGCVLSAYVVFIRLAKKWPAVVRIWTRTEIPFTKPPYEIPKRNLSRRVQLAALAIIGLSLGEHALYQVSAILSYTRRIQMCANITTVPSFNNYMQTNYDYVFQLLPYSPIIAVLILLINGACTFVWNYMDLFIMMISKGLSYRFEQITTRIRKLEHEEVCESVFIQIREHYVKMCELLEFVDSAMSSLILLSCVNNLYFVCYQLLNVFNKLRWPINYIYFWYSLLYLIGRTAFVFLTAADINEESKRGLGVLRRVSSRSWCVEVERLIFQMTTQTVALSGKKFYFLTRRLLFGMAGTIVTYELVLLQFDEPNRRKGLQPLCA

DmGr64a [2] = target: T2, DmGr64a; experiment: calcium imaging, HEK293 cells

OCC1(O)OC[C@@H](O)[C@@H](O)[C@@H]1O (some centres unmarked) [fructose]
EC50 (DmoGr43a): 43 ± 4.69 mM
calcium imaging, HEK293 cells (DmGr64a [1]): several sugars including fructose, trehalose, sucrose and maltose were able to activate DmGr64a

OC[C@H]1O[C@H](O[C@H]2O[C@H](CO)[C@@H](O)[C@H](O)[C@H]2O)[C@H](O)[C@@H](O)[C@@H]1O [trehalose]
calcium imaging, HEK293 cells (DmGr64a [1]): several sugars including fructose, trehalose, sucrose and maltose were able to activate DmGr64a

OC[C@H]1O[C@@](CO)(O[C@H]2O[C@H](CO)[C@@H](O)[C@H](O)[C@H]2O)[C@@H](O)[C@@H]1O [sucrose]
EC50 (DmGr64a [2]): ~1.77 mM

OC[C@H]1O[C@H](O[C@H]2[C@H](O)[C@@H](O)C(O)O[C@@H]2CO)[C@H](O)[C@@H](O)[C@@H]1O (some centres unmarked) [maltose]
calcium imaging, HEK293 cells (DmGr64a [1]): several sugars including fructose, trehalose, sucrose and maltose were able to activate DmGr64a
